This note sets out measurements from patent publication US9193725B2, “Cyclic hydrazine derivatives as HIV attachment inhibitors” (priority 2012, dated 2015).

The test system of this test is HIV-1 LAI envelope single-round infectious reporter virus. The test can be described thus: Single-round infectious luciferase reporter virus (HIV-1 LAI envelope) infection of MT2 cells. It counts as cell-based. Conditions: Human immunodeficiency virus 1, MT2, 72 h. From the text: • Virus production—Human embryonic Kidney cell line, 293T (HEK 293T), was propagated in Dulbecco's Modified Eagle Medium (Invitrogen, Carlsbad, Calif.) containing 10% fetal bovine serum (FBS, Sigma, St. Louis, Mo.). The human T-cell leukemia cell MT2 (AIDS Research and Reference Reagent Program, Cat. 237) was propagated in RPMI 1640 (Invitrogen, Carlsbad, Calif.) containing 10% fetal bovine serum (FBS, Hyclone, Logan, Utah) • Virus infection—Single-round infectious reporter virus was produced by co-transfecting HEK 293T cells with plasmide expressing the HIV-1 LAI envelope along with a plasmid containing an HIV-1 LAI proviral cDNA with the envelope gene replaced by a firefly luciferase reporter gene (Chen et al., Ref 41). Transfections were performed using lipofectAMINE PLUS reagent as described by the manufacturer (Invitrogen, Carlsbad, Calif.). Experimental Procedure • 1. MT2 cells were plated in black, 384 well plates at a cell density of 5×10^3 cells per well in 25 μl RPMI 1640 containing 10% FBS. • 2. Compound (diluted in dimethylsulfoxide and growth medium) was added to cells at 12.5 μl/well, so that the final assay concentration would be ≦50 nM. • 3. 12.5 μl of single-round infectious reporter virus in Dulbecco's Modified Eagle Medium was added to the plated cells and compound at an approximate multiplicity of infection (MOI) of 0.01, resulting in a final volume of 50 μl per well. • 4. Virus-infected cells were incubated at 37 degrees Celsius in a CO2 incubator and harvested 72 h after infection. • 5. Viral infection was monitored by measuring luciferase expression in the infected cells using a luciferase reporter gene assay kit (Steady-Glo, Promega, Madison, Wis.) as described by the manufacturer. Luciferase activity was then quantified by measuring luminescence using an EnVision Multilabel Plate Readers (PerkinElmer, Waltham, Mass.). • 6. The percent inhibition for each compound was calculated by quantifying the level of luciferase expression in cells infected in the presence of each compound as a percentage of that observed for cells infected in the absence of compound and subtracting such a determined value from 100. • 7. An EC50 provides a method for comparing the antiviral potency of the compounds of this disclosure. The effective concentration for fifty percent inhibition (EC50) was calculated with the Microsoft Excel Xlfit curve fitting software. For each compound, curves were generated from percent inhibition calculated at 10 different concentrations by using a four parameter logistic model (model 205). Table 1 is the key for the data in Table 2.
On the technique in general: In a reporter assay the amount or activity of a reporter protein is the signal.

[1] abbreviates: read-out: EC50 Group from Table 1.

Structures are written as SMILES. Read-outs that look alike come from different tables or passages of the source.

For orientation: EC50 means the concentration giving half of the maximal effect.

For the compound `N#C/C(=C1\CCN(C(=O)C(=O)c2c[nH]c3c(-n4ccnn4)ncc(F)c23)NC1)c1ccccc1` [Compound 1001], the EC50 under setting [1] is less than 500 nM.
The compound `COc1cnc(-n2cnc(C)n2)c2[nH]cc(C(=O)C(=O)N3CC/C(=C(\C#N)c4ccccc4)CN3)c12` [Compound 1002] had a 50% effective concentration (EC50) of 0.29 nM. Besides, under setting [1], the EC50 was less than 500 nM.
The corresponding values for `COc1cnc(-n2cnc(C)n2)c2[nH]cc(C(=O)C(=O)N3CC/C(=C(/C#N)c4ccccc4)CN3C)c12` [Compound 1006, (Z)-2-(1-(2-(4-methoxy-7-(3-methyl-1H-1,2,4-triazol-1-yl)-1H-pyrrolo[2,3-c]pyridin-3-yl)-2-oxoacetyl)-2-methylpiperazin-4-ylidene)-2-phenylacetonitrile] are 456 nM and less than 500 nM.
`COc1cnc(-n2cnc(C)n2)c2[nH]cc(C(=O)C(=O)N3CCc4c(-c5ccccc5)ncnc4N3C)c12` [Compound 2001, 1-(4-methoxy-7-(3-methyl-1H-1,2,4-triazol-1-yl)-1H-pyrrolo[2,3-c]pyridin-3-yl)-2-(1-methyl-5-phenyl-3,4-dihydropyrimido[4,5-c]pyridazin-2(1H)-yl)ethane-1,2-dione]: the EC50 under setting [1] was less than 500 nM.
Turning to `COc1cnc(-n2cnc(C)n2)c2[nH]cc(C(=O)C(=O)N3CCc4c(-c5ccccn5)ncnc4N3C)c12` [Compound 2002, 1-(4-methoxy-7-(3-methyl-1H-1,2,4-triazol-1-yl)-1H-pyrrolo[2,3-c]pyridin-3-yl)-2-(1-methyl-5-(pyridin-2-yl)-3,4-dihydropyrimido[4,5-c]pyridazin-2(1H)-yl)ethane-1,2-dione], the EC50 under setting [1] was less than 500 nM.
Same read-out and setting: for `COc1cnc(-n2cnc(C)n2)c2[nH]cc(C(=O)C(=O)N3C(C)Cc4c(-c5ccccc5)ncnc4N3C)c12` (stereo not drawn) [Compound 2003, 1-(1,3-dimethyl-5-phenyl-3,4-dihydropyrimido[4,5-c]pyridazin-2(1H)-yl)-2-(4-methoxy-7-(3-methyl-1H-1,2,4-triazol-1-yl)-1H-pyrrolo[2,3-c]pyridin-3-yl)ethane-1,2-dione] the value was less than 500 nM; for `COc1cnc(-n2cnc(C)n2)c2[nH]cc(C(=O)C(=O)N3CCc4c(ncnc4-c4ccccc4)N3)c12` [Compound 2004, 1-(4-methoxy-7-(3-methyl-1H-1,2,4-triazol-1-yl)-1H-pyrrolo[2,3-c]pyridin-3-yl)-2-(5-phenyl-3,4-dihydropyrimido[4,5-c]pyridazin-2(1H)-yl)ethane-1,2-dione], less than 500 nM.
